Assay results as given in patent US20120255051A1, “HERBICIDE TOLERANT PLANTS” (priority 2009, published 2012).
Where “and” joins values, the source holds several entries; their conditions need not be identical. Identical values can stand only once.

System: Brassica plants comprising mutant AHAS alleles
Experiment: Field trial, pre-planting treatment (0, 10, 20, 30 g a.i./ha), two locations in Canada: ERG, EST1, EST2, PPTOX, VIG1, VIG2, VIG3 scores
Format: in vivo, Brassica napus
Excerpt: Tests were set up and conducted to asses the growth and performance of plants comprising AHAS full knock-out alleles, and to further analyze the correlation between the presence of full knockout and missense AHAS genes in Brassica plants and plant growth and herbicide tolerance of the Brassica plants in the field. To this end, the Brassica plants identified in Example 1 and 2 were backcrossed two times with an elite parent line, and subsequently selfed twice to obtain homozygous plants (BC2S2). Plants were grown as row plots in a split plot design with three replicates (main plots=herbicide treatments, subplots=genotypes) at two locations in Canada. Treatment pre-planting was carried out on the soil about two days before sowing with a dose of 0 (treatment A), 10 (treatment B), 20 (treatment C) or 30 (treatment D) g a.i./ha of thiencarbazone methyl. Herbicide tolerance was measured by scoring for different parameters. The parameter emergence (ERG) was scored at the cotyledon stage on a scale 1-9, where 1 means late emergence and 9 means early emergence. Establishment was scored 14 days after sowing (EST1) and 21 days after sowing (EST2). Scores were from 1 to 9, where 1 is the worst establishment (least plants that emerged), and 9 is the best establishment (most plants emerged). Phytotoxicity (PPTOX) was determined after establishment. Plants were evaluated on a scale of 1 to 9, where 1=completely yellowing, 5=50% of plant is yellow and 9=no yellowing. The vigor scores (see above) were determined at 1-2 leaf stage (VIG1), 7 days after VIG1 (VIG2) and 14 days after VIG1 (VIG3). The average values (Av) and standard deviations (SD) of the scores for the different parameters are represented in Table 7a-g.
Further, the contribution of the knock-out allele to herbicide tolerance conferred by the missense allele was calculated. First, the scores were corrected for a possible effect of the growth per se, independent of herbicide treatment. To this end, the scores for treatments B, C and D were divided by the scores for treatment A for the same genotype and for the same parameter (corrected herbicide tolerance scores). Next, the effect of the knock-out allele to these corrected herbicide tolerance scores obtained by the missense allele was calculated. Therefore, the corrected herbicide tolerance scores for the missense—knock-out allele combination was divided by the corrected herbicide tolerance scores for the missense allele—wild-type combination. In case the knock-out allele has no effect on herbicide tolerance conferred by the missense allele, this ratio should be 1. In case the knock-out allele positively contributes to the herbicide tolerance conferred by the missense allele, this ratio should be higher than 1. The results for the contribution of the knock-out allele to herbicide tolerance conferred by the missense allele as calculated above are shown in table 8.

[1] = Location B, treatment D 30 g a.i./ha pre-planting, ratio >1 = positive contribution

## COC(=O)c1csc(C)c1S(=O)(=O)NC(=O)n1nc(OC)n(C)c1=O [thiencarbazone-methyl, methyl 4-[(4,5-dihydro-3-methoxy-4-methyl-5-oxo-1H-1,2,4-triazol-1-yl)carbonylsulfamoyl]-5-methylthiophene-3-carboxylate]
[1]
  relative contribution of HETO104 (AHAS3 KO) to herbicide tolerance conferred by HETO108 (AHAS1 missense): EST2: 0.95
  relative contribution of HETO104 (AHAS3 KO) to herbicide tolerance conferred by HETO108 (AHAS1 missense): PPTOX: 1.44
  relative contribution of HETO104 (AHAS3 KO) to herbicide tolerance conferred by HETO108 (AHAS1 missense): VIG1: 1.40
  relative contribution of HETO104 (AHAS3 KO) to herbicide tolerance conferred by HETO108 (AHAS1 missense): VIG2: 1.38
  relative contribution of HETO104 (AHAS3 KO) to herbicide tolerance conferred by HETO108 (AHAS1 missense): VIG3: 1.34
  relative contribution of HETO112 (AHAS1 KO) to herbicide tolerance conferred by HETO111 (AHAS3 missense): ERG: 0.88
  relative contribution of HETO112 (AHAS1 KO) to herbicide tolerance conferred by HETO111 (AHAS3 missense): EST1: 0.97
  relative contribution of HETO112 (AHAS1 KO) to herbicide tolerance conferred by HETO111 (AHAS3 missense): EST2: 0.92
  relative contribution of HETO112 (AHAS1 KO) to herbicide tolerance conferred by HETO111 (AHAS3 missense): PPTOX: 0.76
  relative contribution of HETO112 (AHAS1 KO) to herbicide tolerance conferred by HETO111 (AHAS3 missense): VIG1: 0.75
  relative contribution of HETO112 (AHAS1 KO) to herbicide tolerance conferred by HETO111 (AHAS3 missense): VIG2: 1.07
  relative contribution of HETO112 (AHAS1 KO) to herbicide tolerance conferred by HETO111 (AHAS3 missense): VIG3: 1.11
Plants AHAS1 HETO108 / AHAS3 HETO104, 10 g a.i./ha (treatment B) pre-planting, Location A
  vigor3 (VIG3) score, Av: 8.00
Plants AHAS1 HETO108 / AHAS3 HETO104, 10 g a.i./ha (treatment B) pre-planting, Location B
  vigor3 (VIG3) score, Av: 5.33
Plants AHAS1 HETO108 / AHAS3 HETO104, 20 g a.i./ha (treatment C) pre-planting, Location A
  vigor3 (VIG3) score, Av: 6.67
Plants AHAS1 HETO108 / AHAS3 HETO104, 20 g a.i./ha (treatment C) pre-planting, Location B
  vigor3 (VIG3) score, Av: 6.67
Plants AHAS1 HETO108 / AHAS3 HETO104, 30 g a.i./ha (treatment D) pre-planting, Location A
  vigor3 (VIG3) score, Av: 6.67
Plants AHAS1 HETO108 / AHAS3 HETO104, 30 g a.i./ha (treatment D) pre-planting, Location B
  vigor3 (VIG3) score, Av: 6.00
Plants AHAS1 HETO108 / AHAS3 HETO111, 10 g a.i./ha (treatment B) pre-planting, Location A
  vigor3 (VIG3) score, Av: 8.33
Plants AHAS1 HETO108 / AHAS3 HETO111, 10 g a.i./ha (treatment B) pre-planting, Location B
  vigor3 (VIG3) score, Av: 7.67
Plants AHAS1 HETO108 / AHAS3 HETO111, 20 g a.i./ha (treatment C) pre-planting, Location A
  vigor3 (VIG3) score, Av: 7.00
Plants AHAS1 HETO108 / AHAS3 HETO111, 20 g a.i./ha (treatment C) pre-planting, Location B
  vigor3 (VIG3) score, Av: 6.67
Plants AHAS1 HETO108 / AHAS3 HETO111, 30 g a.i./ha (treatment D) pre-planting, Location A
  vigor3 (VIG3) score, Av: 8.00
Plants AHAS1 HETO108 / AHAS3 HETO111, 30 g a.i./ha (treatment D) pre-planting, Location B
  vigor3 (VIG3) score, Av: 4.33
Plants AHAS1 HETO108 / AHAS3 WT, 10 g a.i./ha (treatment B) pre-planting, Location A
  vigor3 (VIG3) score, Av: 8.33 and 7.67
Plants AHAS1 HETO108 / AHAS3 WT, 10 g a.i./ha (treatment B) pre-planting, Location B
  vigor3 (VIG3) score, Av: 5.33 and 6.00
Plants AHAS1 HETO108 / AHAS3 WT, 20 g a.i./ha (treatment C) pre-planting, Location A
  vigor3 (VIG3) score, Av: 7.33 and 7.00
Plants AHAS1 HETO108 / AHAS3 WT, 20 g a.i./ha (treatment C) pre-planting, Location B
  vigor3 (VIG3) score, Av: 6.33 and 8.00
Plants AHAS1 HETO108 / AHAS3 WT, 30 g a.i./ha (treatment D) pre-planting, Location A
  vigor3 (VIG3) score, Av: 7.00 and 7.33
Plants AHAS1 HETO108 / AHAS3 WT, 30 g a.i./ha (treatment D) pre-planting, Location B
  vigor3 (VIG3) score, Av: 5.33
Plants AHAS1 HETO112 / AHAS3 HETO111, 10 g a.i./ha (treatment B) pre-planting, Location A
  vigor3 (VIG3) score, Av: 8.00
Plants AHAS1 HETO112 / AHAS3 HETO111, 10 g a.i./ha (treatment B) pre-planting, Location B
  vigor3 (VIG3) score, Av: 7.33
Plants AHAS1 HETO112 / AHAS3 HETO111, 20 g a.i./ha (treatment C) pre-planting, Location A
  vigor3 (VIG3) score, Av: 7.00
Plants AHAS1 HETO112 / AHAS3 HETO111, 20 g a.i./ha (treatment C) pre-planting, Location B
  vigor3 (VIG3) score, Av: 5.67
Plants AHAS1 HETO112 / AHAS3 HETO111, 30 g a.i./ha (treatment D) pre-planting, Location A
  vigor3 (VIG3) score, Av: 7.67
Plants AHAS1 HETO112 / AHAS3 HETO111, 30 g a.i./ha (treatment D) pre-planting, Location B
  vigor3 (VIG3) score, Av: 5.67
Plants AHAS1 HETO112 / AHAS3 WT, 10 g a.i./ha (treatment B) pre-planting, Location A
  vigor3 (VIG3) score, Av: 1.00
Plants AHAS1 HETO112 / AHAS3 WT, 10 g a.i./ha (treatment B) pre-planting, Location B
  vigor3 (VIG3) score, Av: 1.00
Plants AHAS1 HETO112 / AHAS3 WT, 20 g a.i./ha (treatment C) pre-planting, Location A
  vigor3 (VIG3) score, Av: 1.00
Plants AHAS1 HETO112 / AHAS3 WT, 20 g a.i./ha (treatment C) pre-planting, Location B
  vigor3 (VIG3) score, Av: 1.00
Plants AHAS1 HETO112 / AHAS3 WT, 30 g a.i./ha (treatment D) pre-planting, Location A
  vigor3 (VIG3) score, Av: 1.00
Plants AHAS1 HETO112 / AHAS3 WT, 30 g a.i./ha (treatment D) pre-planting, Location B
  vigor3 (VIG3) score, Av: 1.00
Plants AHAS1 WT / AHAS3 HETO104, 10 g a.i./ha (treatment B) pre-planting, Location A
  vigor3 (VIG3) score, Av: 1.00
Plants AHAS1 WT / AHAS3 HETO104, 10 g a.i./ha (treatment B) pre-planting, Location B
  vigor3 (VIG3) score, Av: 1.00
Plants AHAS1 WT / AHAS3 HETO104, 20 g a.i./ha (treatment C) pre-planting, Location A
  vigor3 (VIG3) score, Av: 1.00
Plants AHAS1 WT / AHAS3 HETO104, 20 g a.i./ha (treatment C) pre-planting, Location B
  vigor3 (VIG3) score, Av: 1.00
Plants AHAS1 WT / AHAS3 HETO104, 30 g a.i./ha (treatment D) pre-planting, Location A
  vigor3 (VIG3) score, Av: 1.00
Plants AHAS1 WT / AHAS3 HETO104, 30 g a.i./ha (treatment D) pre-planting, Location B
  vigor3 (VIG3) score, Av: 1.00
Plants AHAS1 WT / AHAS3 HETO111, 10 g a.i./ha (treatment B) pre-planting, Location A
  vigor3 (VIG3) score, Av: 7.67 and 7.00
Plants AHAS1 WT / AHAS3 HETO111, 10 g a.i./ha (treatment B) pre-planting, Location B
  vigor3 (VIG3) score, Av: 7.33
Plants AHAS1 WT / AHAS3 HETO111, 20 g a.i./ha (treatment C) pre-planting, Location A
  vigor3 (VIG3) score, Av: 6.67
Plants AHAS1 WT / AHAS3 HETO111, 20 g a.i./ha (treatment C) pre-planting, Location B
  vigor3 (VIG3) score, Av: 6.00
Plants AHAS1 WT / AHAS3 HETO111, 30 g a.i./ha (treatment D) pre-planting, Location A
  vigor3 (VIG3) score, Av: 6.67 and 6.33
Plants AHAS1 WT / AHAS3 HETO111, 30 g a.i./ha (treatment D) pre-planting, Location B
  vigor3 (VIG3) score, Av: 4.67 and 5.33
Plants AHAS1 WT / AHAS3 WT, 10 g a.i./ha (treatment B) pre-planting, Location A
  vigor3 (VIG3) score, Av: 1.00
Plants AHAS1 WT / AHAS3 WT, 10 g a.i./ha (treatment B) pre-planting, Location B
  vigor3 (VIG3) score, Av: 1.33
Plants AHAS1 WT / AHAS3 WT, 20 g a.i./ha (treatment C) pre-planting, Location A
  vigor3 (VIG3) score, Av: 1.00
Plants AHAS1 WT / AHAS3 WT, 20 g a.i./ha (treatment C) pre-planting, Location B
  vigor3 (VIG3) score, Av: 1.00
Plants AHAS1 WT / AHAS3 WT, 30 g a.i./ha (treatment D) pre-planting, Location A
  vigor3 (VIG3) score, Av: 1.00
Plants AHAS1 WT / AHAS3 WT, 30 g a.i./ha (treatment D) pre-planting, Location B
  vigor3 (VIG3) score, Av: 1.00
